Measured values reported in patent US10774111B2, “Opioid peptide” (Embrapa—Empresa Brasileira de Pesquisa Agropecuária, priority 2014, dated 2020).
Ends that are not written are not given here.

Legend:
[1] = test system: trypsin; settings: incubation with trypsin enzyme (enzymes present in the gastrointestinal tract), in vitro
Procedure: FIG. 11—Representation of the fragments obtained at the different incubation times with the enzyme trypsin. Analysis performed by mass spectrometry, MALDI. The first spectrum, marked with the letter A, refers to the time of 15 minutes; the second spectrum marked with the letter B indicates the time of 30 minutes; C indicates the time of 2 hour2; D indicates the time of 4 hours; and, finally, E is the control peptide (SEQ ID NO: 6).
FIG. 12—Representation of the fragments obtained at the different incubation times with the enzyme trypsin. Analysis performed by mass spectrometry, MALDI.
By means of this experiment it was possible to try to observe the in vitro peptide digestion by the enzyme present in the organism.

[2] = test system: Swiss mice; assay: Hot Plate nociception test in mice; type: in vivo, Mus musculus; settings: i.p. in mice, dose based on dose and molarity of morphine 10 mg/kg (Leu-enkephalin 19.3 mg/kg), followed 120-240 min
Procedure: (§1) In vivo analyzes: Tests were carried out on Swiss mice of the Mus musculus species, in which nociception tests (Hot Plate and Tail Flick) were used according to Le Bars et al. (2001). Injections were administered via intraperitoneal (IP). Doses were based upon dose and molaridade of the morphine (10 mg/kg animal).
To initiate the nociceptive tests and verify the efficiency of the same, a pilot experiment was carried out using the peptide sequence SEQ ID NO: 2 and evaluating the behavior of the animals in the course of two hours.

[3] = test system: Swiss mice; assay: Tail Flick nociception test in mice; type: in vivo, Mus musculus; settings: i.p. in mice, 240 min
Procedure: as §1

[4] = molecular target: immobilized pepsin (Homo sapiens, UniProt P0DJD8); settings: 4 hours, 37° C., 1400 RPM
immobilized pepsin, sequence (P0DJD8 63-388): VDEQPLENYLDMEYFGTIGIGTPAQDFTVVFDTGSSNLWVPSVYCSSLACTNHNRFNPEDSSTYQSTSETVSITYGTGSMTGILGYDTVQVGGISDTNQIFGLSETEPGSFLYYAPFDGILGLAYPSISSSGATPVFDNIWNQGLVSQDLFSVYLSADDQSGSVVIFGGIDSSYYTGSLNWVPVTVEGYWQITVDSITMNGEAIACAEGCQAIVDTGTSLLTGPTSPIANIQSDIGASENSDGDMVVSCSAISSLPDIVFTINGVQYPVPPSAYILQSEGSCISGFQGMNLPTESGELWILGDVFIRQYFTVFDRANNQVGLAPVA
Procedure: Digestion of the immobilized pepsin precursor: the peptide sequence SEQ ID NO: 6 was digested using immobilized pepsin for a period of 4 hours at 37° C. under agitation of 1400 RPM evaluating the fragmentation index at the times of 15 minutes, 30 minutes, 2 hours and 4 hours.
The peptide sequence SEQ ID NO: 6 was digested using immobilized pepsin for a period of 4 hours, evaluating the fragmentation index at the times of 15 minutes, 30 minutes, 2 hours and 4 hours.
Enkephalin (Leu) was digested using immobilized pepsin for a period of 4 hours, evaluating the fragmentation index at the times of 30 minutes, 1 hour, 2 hours and 4 hours.

Row | Molecule | intensity of the major peak during incubation [1] | antinociceptive (opioid) activity, latency index [2] | antinociceptive activity, latency index [3] | fragmentation index (precursor ion and lower mass ions over time) [4]
1 | CC(C)C[C@H](NC(=O)[C@H](Cc1ccccc1)NC(=O)CNC(=O)CNC(=O)[C@@H](N)Cc1ccc(O)cc1)C(=O)O [Leu-enkephalin, reference compound] | reducing |  |  | 
2 | SEQ ID NO: 2: synthetic opioid peptide of the formula TyrGlyGly-X1-X2-X3-X4; sequence not printed in the text (YGGTGAH) |  | delayed and prolonged activity |  | 
3 | SEQ ID NO: 3: synthetic opioid peptide of the formula TyrGlyGly-X1-X2-X3-X4; sequence not printed in the text (YGGEGVQ) |  | possible to visualize the activity | possible to visualize the activity | 
4 | SEQ ID NO: 4: synthetic opioid peptide of the formula TyrGlyGly-X1-X2-X3-X4; sequence not printed in the text (YGGTTGT) |  | antinociception activity | antinociception activity | 
5 | SEQ ID NO: 5: synthetic opioid peptide of the formula TyrGlyGly-X1-X2-X3-X4; sequence not printed in the text (YGGEGEQ) |  | antinociceptive | antinociceptive | 
6 | YGGTAGAHGTY [SEQ ID NO: 6] | reducing |  |  | increase in the intensity of the lower mass ions over time and the decrease of the precursor ion
